Results on two molecules are retold here after PMC11178805, “Ligand-based design of [^18F]OXD-2314 for PET imaging in non-Alzheimer’s disease tauopathies” (Nature Communications, 2024).

As usually defined, the inhibition is the relative decrease from the control value, in per cent. By Ki is commonly meant the dissociation constant of the complex between target and ligand, obtained from inhibition or displacement. Read a low Ki as a stronger hold on the target. A word on the logD: it is lipophilicity at a set pH, counting ionised and neutral species.

Series [1] has as its target T1, MAO-B (Homo sapiens, UniProt P27338).
T1 construct: purchased Eurofins, France (contract screening)
T1 sequence (P27338 1-520): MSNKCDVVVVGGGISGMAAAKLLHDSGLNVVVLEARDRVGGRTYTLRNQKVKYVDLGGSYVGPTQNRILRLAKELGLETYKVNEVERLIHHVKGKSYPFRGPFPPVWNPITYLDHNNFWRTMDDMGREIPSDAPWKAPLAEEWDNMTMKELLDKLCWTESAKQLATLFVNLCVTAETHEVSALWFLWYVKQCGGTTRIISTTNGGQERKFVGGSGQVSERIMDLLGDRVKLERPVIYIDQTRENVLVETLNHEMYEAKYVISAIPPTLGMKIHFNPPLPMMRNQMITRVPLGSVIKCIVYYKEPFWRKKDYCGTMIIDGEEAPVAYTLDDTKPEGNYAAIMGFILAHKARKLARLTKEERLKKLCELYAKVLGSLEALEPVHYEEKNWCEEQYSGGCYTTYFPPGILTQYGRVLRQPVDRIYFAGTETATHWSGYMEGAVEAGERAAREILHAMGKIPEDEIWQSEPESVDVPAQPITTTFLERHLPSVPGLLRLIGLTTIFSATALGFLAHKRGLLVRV
The series can be described thus: In vitro pharmacology screen (Eurofins): MAO-B. The following applies: read-out: inhibition of MAO-B binding. Here is the method:
(§1) OXD-2314 binding to CNS receptors was calculated as a percentage of inhibition of a receptor-specific radioligand. Enzyme inhibition was calculated as the percent inhibition of baseline enzyme activity where inhibition above 50% was considered significant. […] Norepinephrine transports are expressed in low concentration throughout the brain and its relative concentration are not affected by aging or neurodegeneration. 5-lipoxygenase may be overexpressed in aging brain and play some role in neurodegeneration, which could be necessary to further investigate in vivo[42]. Off-target binding to monoamine oxidase A and B (MAO-A and MAO-B) has been seen with some tau PET radiotracers[43],[44].

Series [2] addresses T2, 4R-tau aggregates in CBD tissue (Homo sapiens, UniProt P10636).
T2 construct: tissue Neurodegenerative Disease Brain Bank at UCSF; host or cells: human CBD brain, middle frontal gyrus (pool of three) or putamen (one subject)
The series can be described thus: Competition binding vs [^3H]OXD-2115 in CBD tissue. To be noted: vs [^3H]OXD-2115, CBD tissue, n = 1. As for the experimental part: (§2) Fresh frozen, autopsy-confirmed human PD anterior cingulate cortex brain tissue blocks (1 cm^3) were obtained from Dr. Thomas Beach at Banner/Sun Health AZ with funding from the Michael J. Fox Foundation and contained frequent α-synuclein aggregates and no other detectable aggregated amyloid species. The frozen tissue blocks were prepared for the binding assays as previously described[47],[48], except that equal quantities of the homogenates of three AD brains (AD1-AD3, Table S1) were pooled, as were homogenates from three PSP brains (PSP1-PSP3), three CBD brains (CBD1-CBD3), three Pick’s brains (PiD1-PiD3), and 4 PD brains (PD1-PD4) in order to help minimize the inter-subject variability within the different neuropathological groups. Individual subcortical brain tissues from a PSP subject (PSP4) and a CBD subject (CBD4), as well as with the middle frontal cortex of a control subject, were prepared for the binding assays as previously described[47],[48].
(§3) The equilibrium inhibition constant (Ki) values of the unlabeled compounds were determined versus tritium-labeled radioligands using published methods.

In series [3] the target is T3, 3R-tau aggregates in PiD tissue (Homo sapiens, UniProt P10636).
T3 construct: tissue Neurodegenerative Disease Brain Bank at UCSF; host or cells: human PiD brain, middle frontal gyrus, pooled homogenate of three brains
Description: Competition binding vs [^3H]OXD-2314 in PiD tissue. As for the experimental part: as §2, §3

The target in series [4] is T4, MAO-A (Homo sapiens, UniProt P21397).
T4 construct: purchased Eurofins, France (contract screening)
T4 sequence (P21397 1-527): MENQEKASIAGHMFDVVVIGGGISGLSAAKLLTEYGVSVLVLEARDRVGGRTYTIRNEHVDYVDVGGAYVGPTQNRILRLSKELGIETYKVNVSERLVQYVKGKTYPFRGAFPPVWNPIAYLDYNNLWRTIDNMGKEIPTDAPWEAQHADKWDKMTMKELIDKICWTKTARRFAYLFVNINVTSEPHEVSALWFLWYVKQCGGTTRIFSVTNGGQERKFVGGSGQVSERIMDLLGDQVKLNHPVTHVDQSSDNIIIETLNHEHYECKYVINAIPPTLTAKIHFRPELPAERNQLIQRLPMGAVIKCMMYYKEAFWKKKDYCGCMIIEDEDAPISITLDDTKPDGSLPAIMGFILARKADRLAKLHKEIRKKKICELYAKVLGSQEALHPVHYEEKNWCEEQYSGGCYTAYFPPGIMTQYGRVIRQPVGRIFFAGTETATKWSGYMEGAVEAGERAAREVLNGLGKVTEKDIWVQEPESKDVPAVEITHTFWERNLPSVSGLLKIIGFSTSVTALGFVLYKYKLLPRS
The series can be described thus: In vitro pharmacology screen (Eurofins): MAO-A. The series is classed as binding. The following applies: read-out: interaction with MAO-A (% inhibition). As for the experimental part: as §1

Series [5] concerns the target T5, 4R-tau aggregates in PSP tissue (Homo sapiens, UniProt P10636).
T5 construct: tissue Neurodegenerative Disease Brain Bank at UCSF
The series can be described thus: Competition binding vs [^3H]OXD-2115 in PSP tissue homogenates. To be noted: vs [^3H]OXD-2115, PSP tissue homogenates, n = 1. As for the experimental part:
as §2, §3

A short description of series [6]: Mouse pharmacology (DMPK): plasma and brain concentrations, brain-to-plasma ratios after i.v. administration. The series is classed as in vivo, mice. As for the experimental part: Ex vivo evaluation of the BBB permeability of OXD-2314 was performed by measuring the brain-to-plasma ratios in mice. Compound concentrations in plasma (0.03 h, 0.17 h, 0.5 h, 1 h, and 2 h; n = 3 per timepoint) were compared with concentrations in brain (0.03 h, 0.17 h, 1 h, and 2 h; n = 3 per timepoint) for both OXD-2115 and OXD-2314. The total brain-to-plasma concentration ratios were 1.7 for OXD-2314 and 0.1 for OXD-2115. The free concentration ratio for brain-to-plasma was 0.6 for OXD-2314 and 0.002 for OXD-2115 (Figs. S3–S8 and Tables S2, S3).

Series [7] is described as follows: logD7.4 by shake-flask method. It is filed as physicochemical. The following applies: pH 7.4. The text has this: [^18F]OXD-2314 was radiolabeled by an analogous method previously reported for [^18F]OXD-2115 with minor modifications (Fig. 2)[30]. [^18F]OXD-2314 was reliably produced with high radiochemical purity (RCP) ranging from 95-98%, molar activity (Am) of […] (n = 4), and radiochemical yield (RCY) of 8.7 ± 3.7% (not decay-corrected, ndc) in the laboratories in Toronto and was replicated with Am of 349 ± 144 GBq/μmol (n = 4) and RCY of 2.3 ± 1.1% (ndc) in the laboratories in Pittsburgh. The logD7.4 value of [^18F]OXD-2314 was measured as 3.11 ± 0.04 using the shake-flask method.

Where “and” joins values, the source holds several entries; their conditions need not be identical. Equal values may be shown once.

T3 sequence (P10636 1-410 isoform P10636-5): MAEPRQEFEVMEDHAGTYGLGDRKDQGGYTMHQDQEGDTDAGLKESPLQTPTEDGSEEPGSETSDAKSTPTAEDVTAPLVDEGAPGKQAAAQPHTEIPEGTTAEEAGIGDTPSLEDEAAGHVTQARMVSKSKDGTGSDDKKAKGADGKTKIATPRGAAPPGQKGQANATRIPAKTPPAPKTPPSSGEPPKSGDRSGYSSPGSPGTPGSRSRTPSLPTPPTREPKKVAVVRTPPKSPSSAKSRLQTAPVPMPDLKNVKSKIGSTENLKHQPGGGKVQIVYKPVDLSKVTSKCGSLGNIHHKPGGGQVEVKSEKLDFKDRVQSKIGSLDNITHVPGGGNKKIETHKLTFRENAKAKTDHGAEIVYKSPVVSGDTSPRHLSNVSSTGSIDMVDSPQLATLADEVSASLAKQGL
T2 sequence (P10636 1-441 isoform P10636-8): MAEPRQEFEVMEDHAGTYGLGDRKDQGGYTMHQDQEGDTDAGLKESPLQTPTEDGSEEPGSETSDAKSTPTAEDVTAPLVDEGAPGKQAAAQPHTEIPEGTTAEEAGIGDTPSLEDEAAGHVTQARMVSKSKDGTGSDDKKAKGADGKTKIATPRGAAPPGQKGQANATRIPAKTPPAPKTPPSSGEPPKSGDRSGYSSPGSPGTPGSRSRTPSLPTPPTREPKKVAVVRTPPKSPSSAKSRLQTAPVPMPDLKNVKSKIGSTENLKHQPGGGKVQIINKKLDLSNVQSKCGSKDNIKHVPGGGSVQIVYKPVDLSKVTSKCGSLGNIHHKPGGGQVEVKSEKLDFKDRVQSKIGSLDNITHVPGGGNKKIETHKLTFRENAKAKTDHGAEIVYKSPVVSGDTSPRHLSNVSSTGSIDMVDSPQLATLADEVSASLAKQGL
T5 sequence (P10636 1-441 isoform P10636-8): as above

Take `COC1CCCN(c2ccc(-c3cc4cc(O)ccc4[nH]3)c(F)n2)C1` (centres unmarked) [OXD-2314, 2-(2-fluoro-6-(3-methoxypiperidin-1-yl)pyridin-3-yl)-1H-indol-5-ol]: the results for the inhibition at 10 µM in series [1] and in series [4] were 37% and -1.7%, respectively. Moreover, the Ki in series [2] was determined as 4.4 nM; in series [3], 5.5 ± 0.5 nM; in series [5], 4.8 nM. Also, the “Conc. (ng/ml), brain” value in series [6] (mouse brain, t=1 hr after i.v. administration, individual animals, LC-MS/MS 341.7500>256.1500, re-run Brain_2) was 0.851 ng/mL; in series [6] (mouse brain, t=2 hr after i.v. administration, individual animals, LC-MS/MS 341.7500>256.1500, re-run Brain_2) it was 0.647 ng/mL and 0.5 ng/mL and 0.3 ng/mL. The Kp,uu (unbound brain-to-plasma ratio) in series [6] (mouse, brain, iv, mice, i.v., AUC brain:plasma, FREE, read-out: free concentration ratio brain-to-plasma) was 0.6. The Kp in series [6] (mouse, brain, iv, mice, i.v., AUC brain:plasma, TOTAL, read-out: total brain-to-plasma concentration ratio) was determined as 1.7. For the same molecule, in series [6] (mouse, brain, iv, mouse brain, t=1 hr after i.v. administration, individual animals, LC-MS/MS 341.7500>256.1500, re-run Brain_2, read-out: Conc. (ng/ml), brain), the concentration at 1 h came to 1 ng/mL.

For `CO[C@H]1CCCN(c2ccc(-c3cc4cc(O)ccc4[nH]3)c([18F])n2)C1` [[^18F]OXD-2314], the logD in series [7] came to 3.11 ± 0.04.
